The values below are quoted from earlier work in patent US20040142847A1, “Detergent tablets with polyurethane coating” (priority 2002, published 2004).

The conditions of data set [1]: for amount of the anhydrous salt that dissolves in 100 g of water: per 100 g of water.
The conditions of data set [2]: 1% strength solution at 25°.
For data set [3] the following is noted: after heating the solution at 100° C. for two hours.
[4] abbreviates: 20° C., listing of preferred solubilizers.
Where [5] appears, read: 20° C., listing of suitable solubilizers.
The mark [6] stands for this setting: 25° C., listing of preferred solubilizers.

Converted amounts (≈) assume the structure as drawn. Read-outs that look alike come from different tables or passages of the source.

In the case of `[Cl-].[Cl-].[Zn+2]` [Zinc chloride], the solubility in water in data set [1] (setting [4]) and in data set [1] (setting [5]) was 3680 g/L in each case.

Consider `O=C(CO)[C@@H](O)[C@H](O)[C@@H](O)CO` [L(−)-sorbose], for which, in data set [1] (17° C., listing of preferred solubilizers), the solubility in water was 550 g/L (≈ 3050 mM).

As for `O=C[C@H](O)[C@@H](O)[C@@H](O)[C@H](O)CO` [D(+)-Galactose], the solubility in water in data set [1] (setting [6]) was 680 g/L (≈ 3770 mM).

`NC(N)=O` [Urea]: the solubility in water in data set [1] (setting [4]) and in data set [1] (setting [5]) was 1080 g/L (≈ 18000 mM) each time.

With `O=C(O)CC(O)C(=O)O` (racemic) [DL-Malic acid], the solubility in water in data set [1] (26° C., listing of preferred solubilizers) was 1440 g/L (≈ 10700 mM); in data set [1] (26° C., listing of suitable solubilizers), 1440 g/L (≈ 10700 mM).

As to Sodium polyphosphate, the solubility in water in data set [1] (setting [5]) is 1000 g/L.

Regarding `O=P([O-])([O-])OP(=O)([O-])[O-].[K+].[K+].[K+].[K+]` [Potassium diphosphate], the “pH of the 1% strength solution” value in data set [2] is recorded as 10.4.

Consider `O=C(O)/C=C\C(=O)O` [Maleic acid], for which the solubility in water in data set [1] (setting [6]) is 788 g/L (≈ 6790 mM).

Turning to `O=P([O-])([O-])OP(=O)([O-])OP(=O)([O-])[O-].[Na+].[Na+].[Na+].[Na+].[Na+]` [pentasodium triphosphate], the “amount of the anhydrous salt that dissolves in 100 g of water” value in data set [1] (60°) is “about 20 g”; in data set [1] (100°) it was “around 32 g”; in data set [1] (room temperature), “About 17 g”. For the same molecule, the “diphosphate produced by hydrolysis” value in data set [3] is recorded as ~15%. In addition, the “orthophosphate produced by hydrolysis” value in data set [3] is reported as “about 8%”.

Regarding `[Cl-].[Cs+]` [Cesium chloride], the solubility in water in data set [1] (setting [4]) and in data set [1] (setting [5]) was 1800 g/L throughout.

On to `[Cl-].[K+]` [Potassium chloride], for which the solubility in water in data set [1] (setting [4]) and in data set [1] (setting [5]) was 340 g/L throughout.
